Test results: BindingDB's records for patent US9796704 (SYMPHONY EVOLUTION, INC., 2017)

Columns and labels:
[1] = target: Vascular endothelial growth factor receptor 2 (Homo sapiens, UniProt P35968); experiment: AlphaScreen Assay
[2] = target: Ephrin type-A receptor 2 (Homo sapiens, UniProt P29317); experiment: AlphaScreen Assay
Ephrin type-A receptor 2, sequence (P29317 whole entry): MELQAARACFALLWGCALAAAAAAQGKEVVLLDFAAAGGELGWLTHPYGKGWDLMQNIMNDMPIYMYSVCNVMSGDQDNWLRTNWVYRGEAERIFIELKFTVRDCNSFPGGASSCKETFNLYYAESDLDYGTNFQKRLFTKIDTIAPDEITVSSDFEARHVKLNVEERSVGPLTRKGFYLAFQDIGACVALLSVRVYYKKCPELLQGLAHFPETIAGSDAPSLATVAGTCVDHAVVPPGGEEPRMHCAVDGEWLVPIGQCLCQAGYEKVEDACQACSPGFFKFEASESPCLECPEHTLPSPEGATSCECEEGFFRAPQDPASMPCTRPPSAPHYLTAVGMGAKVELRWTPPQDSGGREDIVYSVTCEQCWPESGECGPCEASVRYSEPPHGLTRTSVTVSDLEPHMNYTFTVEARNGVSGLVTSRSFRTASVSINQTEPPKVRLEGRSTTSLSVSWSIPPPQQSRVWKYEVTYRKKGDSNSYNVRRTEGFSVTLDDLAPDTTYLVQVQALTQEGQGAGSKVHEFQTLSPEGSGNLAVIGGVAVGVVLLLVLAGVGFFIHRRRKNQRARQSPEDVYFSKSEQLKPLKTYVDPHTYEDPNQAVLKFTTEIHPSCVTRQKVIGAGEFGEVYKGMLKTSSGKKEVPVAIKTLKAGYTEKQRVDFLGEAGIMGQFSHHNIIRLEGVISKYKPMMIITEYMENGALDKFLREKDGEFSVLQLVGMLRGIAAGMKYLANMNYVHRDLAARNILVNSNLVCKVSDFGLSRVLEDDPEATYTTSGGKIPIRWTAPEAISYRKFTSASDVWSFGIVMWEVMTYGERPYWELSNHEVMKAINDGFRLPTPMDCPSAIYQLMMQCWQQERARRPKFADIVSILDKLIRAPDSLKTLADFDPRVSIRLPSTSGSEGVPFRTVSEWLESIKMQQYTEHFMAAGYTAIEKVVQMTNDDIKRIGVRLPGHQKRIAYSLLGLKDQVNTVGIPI

Vascular endothelial growth factor receptor 2, sequence (P35968 whole entry): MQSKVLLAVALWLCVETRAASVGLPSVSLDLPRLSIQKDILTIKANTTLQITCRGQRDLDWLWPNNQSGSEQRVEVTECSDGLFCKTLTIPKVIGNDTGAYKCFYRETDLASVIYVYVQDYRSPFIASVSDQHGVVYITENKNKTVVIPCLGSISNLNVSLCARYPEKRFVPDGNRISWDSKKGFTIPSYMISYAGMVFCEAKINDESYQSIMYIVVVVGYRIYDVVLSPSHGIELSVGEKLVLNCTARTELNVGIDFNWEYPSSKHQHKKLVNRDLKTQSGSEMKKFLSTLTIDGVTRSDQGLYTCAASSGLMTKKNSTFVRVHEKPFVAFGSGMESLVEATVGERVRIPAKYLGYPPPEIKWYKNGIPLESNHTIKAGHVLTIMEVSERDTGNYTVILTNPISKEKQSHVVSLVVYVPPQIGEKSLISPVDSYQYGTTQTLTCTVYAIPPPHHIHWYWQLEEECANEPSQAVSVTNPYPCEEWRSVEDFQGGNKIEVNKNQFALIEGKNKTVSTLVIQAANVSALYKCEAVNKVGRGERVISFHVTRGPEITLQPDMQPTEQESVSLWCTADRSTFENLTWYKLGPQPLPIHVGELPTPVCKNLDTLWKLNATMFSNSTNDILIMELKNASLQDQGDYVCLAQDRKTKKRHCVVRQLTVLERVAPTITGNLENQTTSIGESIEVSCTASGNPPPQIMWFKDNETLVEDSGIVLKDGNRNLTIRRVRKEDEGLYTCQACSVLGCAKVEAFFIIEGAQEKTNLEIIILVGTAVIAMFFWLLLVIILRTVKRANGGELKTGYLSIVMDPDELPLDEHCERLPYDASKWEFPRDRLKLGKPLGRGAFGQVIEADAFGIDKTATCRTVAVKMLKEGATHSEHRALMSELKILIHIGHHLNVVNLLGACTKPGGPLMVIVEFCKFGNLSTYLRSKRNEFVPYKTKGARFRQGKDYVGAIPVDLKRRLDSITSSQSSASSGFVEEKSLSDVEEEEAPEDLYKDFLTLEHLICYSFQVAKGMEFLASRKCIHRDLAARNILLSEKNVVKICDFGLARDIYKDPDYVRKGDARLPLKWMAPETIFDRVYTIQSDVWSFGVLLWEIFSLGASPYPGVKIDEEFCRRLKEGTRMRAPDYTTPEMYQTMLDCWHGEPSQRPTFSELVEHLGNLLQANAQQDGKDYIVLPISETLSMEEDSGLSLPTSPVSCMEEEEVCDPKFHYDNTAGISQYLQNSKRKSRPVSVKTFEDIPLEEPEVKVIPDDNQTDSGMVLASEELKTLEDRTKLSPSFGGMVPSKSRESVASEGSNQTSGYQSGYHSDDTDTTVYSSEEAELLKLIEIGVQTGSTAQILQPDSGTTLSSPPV

IC50 [1] | IC50 [2] | SMILES
< 50 nM |  | COc1cc2c(Nc3cc(Cl)c(Br)cc3F)ncnc2cc1OC[C@H]1CN2CCOCC2CO1 (some centres not stated) [US9796704, Entry 20]
 | in the range around 525 nM | COc1cc2c(Nc3ccc(Br)c(Cl)c3Cl)ncnc2cc1OC[C@@H]1CN2CCC[C@H]2CO1 [US9796704, Entry 39]
in the range around 10500 nM |  | COc1cc2c(Nc3cc(Cl)c(Cl)cc3F)ncnc2cc1OC[C@@H]1CO[C@H]2[C@@H]1OC[C@@H]2OC [US9796704, Entry 48]
in the range around 525 nM |  | COc1cc2c(Nc3cccc(Cl)c3F)ncnc2cc1O[C@H]1CO[C@H]2[C@@H]1OC[C@@H]2OC [US9796704, Entry 71]
in the range around 525 nM |  | CCO[C@H]1CO[C@H]2[C@@H]1OC[C@@H]2Oc1cc2ncnc(Nc3ccc(Br)c(Cl)c3)c2cc1OC [US9796704, Entry 74]
in the range around 525 nM |  | COc1cc2c(Nc3cccc(Br)c3C)ncnc2cc1O[C@H]1CO[C@H]2[C@@H]1OC[C@@H]2OC [US9796704, Entry 75]
in the range around 525 nM |  | COc1cc2c(Nc3cccc(Cl)c3C)ncnc2cc1O[C@H]1CO[C@H]2[C@@H]1OC[C@@H]2OC [US9796704, Entry 76]
in the range around 525 nM |  | COc1cc2c(Nc3ccc(Br)c(Cl)c3)ncnc2cc1O[C@H]1CO[C@@H]2CCO[C@H]12 [US9796704, Entry 77]
in the range around 525 nM | in the range around 525 nM | COc1cc2c(Nc3ccc(Br)c(Cl)c3)ncnc2cc1O[C@H]1CO[C@@H]2C3OC(C)(C)O[C@H]3O[C@H]12 (some centres not stated) [US9796704, Entry 80]
in the range around 525 nM | in the range around 525 nM | COc1cc2c(Nc3ccc(F)c(F)c3F)ncnc2cc1O[C@@H]1CO[C@@H]2[C@H]1OC[C@H]2F [US9796704, Entry 84]
in the range around 525 nM | in the range around 525 nM | COc1cc2c(Nc3cccc(F)c3F)ncnc2cc1O[C@@H]1CO[C@@H]2[C@H]1OC[C@H]2F [US9796704, Entry 92]
in the range around 525 nM | in the range around 525 nM | COc1cc2c(Nc3ccc(Br)c(Cl)c3Cl)ncnc2cc1O[C@@H]1CO[C@@H]2[C@H]1OC[C@H]2F [US9796704, Entry 103]
 | in the range around 525 nM | COc1cc2c(Nc3cc(F)c(Br)c(Cl)c3)ncnc2cc1O[C@@H]1CO[C@@H]2[C@H]1OC[C@H]2F [US9796704, Entry 104]
in the range around 525 nM | in the range around 525 nM | COc1cc2c(Nc3cc(Cl)c(Cl)cc3F)ncnc2cc1O[C@@H]1CO[C@@H]2[C@H]1OC[C@H]2F [US9796704, Entry 105]
in the range around 10500 nM | in the range around 525 nM | COc1cc2c(Nc3cccc(Cl)c3)ncnc2cc1O[C@@H]1CO[C@@H]2[C@H]1OC[C@H]2F [US9796704, Entry 114]
in the range around 10500 nM |  | COc1cc2c(Nc3ccc(F)cc3)ncnc2cc1O[C@@H]1CO[C@@H]2[C@H]1OC[C@H]2F [US9796704, Entry 115]
in the range around 525 nM |  | COc1cc2c(Nc3cc(Cl)ccc3Cl)ncnc2cc1O[C@@H]1CO[C@@H]2[C@H]1OC[C@H]2F [US9796704, Entry 118]
in the range around 525 nM | in the range around 525 nM | COc1cc2c(Nc3cccc(Br)c3)ncnc2cc1O[C@@H]1CO[C@@H]2[C@H]1OC[C@H]2F [US9796704, Entry 129]
in the range around 525 nM | in the range around 525 nM | COc1cc(OC)c(Nc2ncnc3cc(O[C@@H]4CO[C@@H]5[C@H]4OC[C@H]5F)c(OC)cc23)cc1Cl [US9796704, Entry 135]

IC50 [1] | IC50 [2] | SMILES
in the range around 525 nM | in the range around 525 nM | COc1cc2c(Nc3ccc(F)c(Cl)c3F)ncnc2cc1O[C@@H]1CO[C@@H]2[C@H]1OC[C@H]2F [US9796704, Entry 137]
 | in the range around 525 nM | COc1cc2c(Nc3ccc(Cl)c(Cl)c3)ncnc2cc1OCc1noc(CN(C)C)n1 [US9796704, Entry 138]
in the range around 525 nM | in the range around 525 nM | COc1cc2c(Nc3ccc(Cl)c(Cl)c3)ncnc2cc1OCc1nc(CN(C)C)no1 [US9796704, Entry 139]
 | in the range around 525 nM | COc1cc2c(Nc3ccc(Cl)c(Cl)c3)ncnc2cc1OCc1nc(CN2CCN(C)CC2)no1 [US9796704, Entry 140]
in the range around 525 nM | in the range around 525 nM | COc1cc2c(Nc3ccc(Cl)c(Cl)c3)ncnc2cc1OCc1noc(C2CCNCC2)n1 [US9796704, Entry 141]
in the range around 525 nM | in the range around 525 nM | COc1cc2c(Nc3ccc(Cl)c(Cl)c3)ncnc2cc1OCc1noc(C2CCN(C)CC2)n1 [US9796704, Entry 142]
in the range around 525 nM | in the range around 525 nM | COc1cc2c(Nc3ccc(Cl)c(Cl)c3)ncnc2cc1OCc1nc(CN2CCOCC2)no1 [US9796704, Entry 143]
in the range around 525 nM | in the range around 10500 nM | COc1cc2c(Nc3ccc(Cl)c(Cl)c3)ncnc2cc1OCc1noc(C2CCCCN2)n1 (configuration not stated) [US9796704, Entry 145]
in the range around 525 nM |  | COc1cc2c(Nc3ccc(Cl)c(Cl)c3)ncnc2cc1OCC1CN(C)CCO1 (configuration not stated) [US9796704, Entry 151]
 | in the range around 525 nM | COc1cc2c(Nc3ccc(Cl)c(Cl)c3)ncnc2cc1OCC1CN(C)CCCO1 (configuration not stated) [US9796704, Entry 155]
 | in the range around 525 nM | COc1cc2c(Nc3ccc(Cl)c(Cl)c3)ncnc2cc1OCc1noc(C)c1-c1ccccc1 [US9796704, Entry 161]
in the range around 525 nM |  | COc1cc2c(Nc3ccc(Cl)c(Cl)c3)ncnc2cc1OCc1noc(-c2ccc(C(F)(F)F)cc2)n1 [US9796704, Entry 167]
in the range around 525 nM |  | COc1cc2c(Nc3ccc(Cl)c(Cl)c3)ncnc2cc1OCc1cscn1 [US9796704, Entry 170]
in the range around 525 nM |  | COc1cc2c(Nc3ccc(Cl)c(Cl)c3)ncnc2cc1OCC1CC1 [US9796704, Entry 182]
in the range around 525 nM |  | COc1cc2c(Nc3ccc(Cl)c(Cl)c3)ncnc2cc1OCC1CCCO1 (configuration not stated) [US9796704, Entry 183]
in the range around 525 nM |  | COc1cc2c(Nc3ccc(Cl)c(Cl)c3)ncnc2cc1OC1CCCC1 [US9796704, Entry 184]
in the range around 525 nM |  | COc1cc2c(Nc3ccc(Cl)c(Cl)c3)ncnc2cc1OCCC1CCCCC1 [US9796704, Entry 185]
in the range around 525 nM |  | COc1cc2c(Nc3ccc(Cl)c(Cl)c3)ncnc2cc1OCC1CCCCC1 [US9796704, Entry 186]
in the range around 525 nM |  | COc1cc2c(Nc3ccc(Cl)c(Cl)c3)ncnc2cc1OCC1CCC1 [US9796704, Entry 187]

IC50 [1] | IC50 [2] | SMILES
in the range around 525 nM |  | COc1cc2c(Nc3ccc(Cl)c(Cl)c3)ncnc2cc1OCCC1OCCO1 [US9796704, Entry 188]
in the range around 525 nM |  | COc1cc2c(Nc3ccc(Cl)c(Cl)c3)ncnc2cc1OCCC1OCCCO1 [US9796704, Entry 189]
in the range around 525 nM |  | COc1cc2c(Nc3ccc(Cl)c(Cl)c3)ncnc2cc1OCCN1CCOCC1 [US9796704, Entry 190]
in the range around 525 nM |  | COc1cc2c(Nc3ccc(Cl)c(Cl)c3)ncnc2cc1OCCN1CCCC1 [US9796704, Entry 191]
in the range around 525 nM |  | COc1cc2c(Nc3ccc(Cl)c(Cl)c3)ncnc2cc1OCCN1CCCCC1 [US9796704, Entry 192]
in the range around 525 nM |  | COc1cc2c(Nc3ccc(Cl)c(Cl)c3)ncnc2cc1OCC(=O)N1CCOCC1 [US9796704, Entry 195]
in the range around 525 nM |  | COc1cc2c(Nc3ccc(Cl)c(Cl)c3)ncnc2cc1OCc1nc(-c2ccc(O)c(C(N)=O)c2)cs1 [US9796704, Entry 200]
in the range around 525 nM |  | COc1cc2c(Nc3ccc(Cl)c(Cl)c3)ncnc2cc1OCc1nc(-c2cccnc2)cs1 [US9796704, Entry 201]
in the range around 525 nM |  | COc1cc2c(Nc3ccc(Cl)c(Cl)c3)ncnc2cc1OCc1nc(-c2ccccn2)cs1 [US9796704, Entry 202]
in the range around 525 nM |  | COc1cc2c(Nc3ccc(Cl)c(Cl)c3)ncnc2cc1OCc1nc(N2CCOCC2)no1 [US9796704, Entry 205]
in the range around 525 nM |  | COc1cc2c(Nc3ccc(Cl)c(Cl)c3)ncnc2cc1OCc1nc(N(C)C)no1 [US9796704, Entry 206]
in the range around 525 nM |  | COc1cc2c(Nc3ccc(Cl)c(Cl)c3)ncnc2cc1OCc1nc(CN2CCN(C)CC2)cs1 [US9796704, Entry 207]
in the range around 525 nM |  | COc1cc2c(Nc3ccc(Cl)c(Cl)c3)ncnc2cc1OCc1nc2c(s1)CNCC2 [US9796704, Entry 208]
in the range around 525 nM |  | COc1cc2c(Nc3ccc(Cl)c(Cl)c3)ncnc2cc1OCc1nc(CN2CCOCC2)cs1 [US9796704, Entry 209]
in the range around 10500 nM |  | CCN1CCOC(COc2cc3ncnc(Nc4ccc(Cl)c(Cl)c4)c3cc2OC)C1 (configuration not stated) [US9796704, Entry 212]
in the range around 525 nM |  | COc1cc2c(Nc3ccc(Cl)c(Cl)c3)ncnc2cc1OCc1csc(C2CCNCC2)n1 [US9796704, Entry 213]
in the range around 525 nM |  | COc1cc2c(Nc3ccc(Cl)c(Cl)c3)ncnc2cc1OCc1csc(C2CCN(C)CC2)n1 [US9796704, Entry 214]
in the range around 525 nM |  | COc1cc2c(Nc3ccc(Cl)c(Cl)c3)ncnc2cc1OCc1nc(N2CCN(C(=O)OC(C)(C)C)CC2)no1 [US9796704, Entry 215]
in the range around 525 nM |  | CCN1CCCCC1c1nc(COc2cc3ncnc(Nc4ccc(Cl)c(Cl)c4)c3cc2OC)no1 (configuration not stated) [US9796704, Entry 219]

SMILES | IC50 [1] | IC50 [2]
COc1cc2c(Nc3ccc(Cl)c(Cl)c3)ncnc2cc1OC[C@H]1CN2CCC[C@@H]2CO1 [US9796704, Entry 31] |  | < 50 nM
